Data on five compounds can be found in patent publication US5736557A, “N,N-bis (quinolin-4-yl)-diamine derivatives, their preparation and their use as antimalarials” (Hoffman-La Roche, Inc., priority 1994, dated 1998).

In assay [1] the test system is Plasmodium berghei. Briefly: Activity against Plasmodium berghei in vivo in mice. Also noted: species or system Plasmodium berghei (strain ANKA) in mice. To be noted: mice; for inhibition in vivo at 10 mg/kg: percentage parasitemia reduction. Here is the method:
Test Method for the Determination of the Activity Against Plasmodium berghei in vivo
The preparations are tested on mice infected with malaria pathogens (Plasmodium berghei). Male albino mice (IBM:MORO(SPF), FUELLINSDORF) weighing about 25 g are used as the test animals. They are kept in climatized rooms at 21°-22° C. in groups of 5 animals per cage. They receive ad libitum a diet feed with a low PABA content (NAFAG FUTTER .COPYRGT. No. 9009 PAB-45, PABA content 45 mg/kg) and drinking water. On the first day of the test (DO) the test animals are infected with Plasmodium berghei (strain ANKA). For this there is used heparinized blood of a donor mouse with about 30% parasitemia, which is diluted with physiological saline such that it contains 10^8 parasitized erythrocytes per ml. 0.2 ml of this suspension is injected intravenously (i.v.) into the mice to be treated and into the control mice. In untreated control animals the parasitemia normally reaches 30-40% on the third day after the infection (D+3) and the test animals die between days +5 and +7.
The substances to be tested are dissolved or suspended in distilled water or in a mixture of 7% Tween 80, 3% alcohol (96%) and water. Usually, 0.25 ml of this solution or suspension is administered once subcutaneously and perorally to groups of 5 test animals. Treatment is effected 24 hours after the infection. 10 control animals are treated in the same manner with solvent or suspension medium per test.
All substances are tested in a first test in a single dosage of 10 mg/kg. Only those substances which in this test (10 mg/kg) have shown a parasitaemia reduction of 90% are used for the titration. Suitable dilutions of the test substance can be used to obtain an accurate titration of the activity.
48 hours after the treatment (D+3) blood smears are prepared from all animals using blood from tail veins and are stained with giemsa. The average erythrocyte infection rate (parasitemiea in %) in the control groups as well as in the groups which have been treated with the test compounds is determined by counting under a microscope. The difference in the average values of the infection rates of control group (100%) and treated groups is calculated and expressed as a percentage reduction (GI%). The ED50 or ED90 is determined mathematically by means of the JMP programme (nonlinear fit). The ED50 (ED90) in mg/kg is that dose which after single administration reduces the average erythrocyte infection rate by 50% (90%) in comparison to the control group.

The subject of assay [2] is chloroquine-resistant strains of the human-pathogenic Plasmodium falciparum. The assay is described as follows: Growth inhibition of chloroquine-resistant Plasmodium falciparum strains in vitro. The format is cell-based. To be noted: for IC50: Plasmodium falciparum; for Resistance index: ratio of average IC50 values for resistant strains and average values for sensitive strains. On the procedure:
(§1) Test Method for the Determination of the Activity Against Plasmodium falciparum in vitro
(§2) The preparations are tested on intraerythrocytary stages of Plasmodium falciparum from asynchronous cultures according to the method of Desjardin et al. (Desjardins, R. E. et al: Quantitative assessment of antimalarial activity in vitro by a semiautomated microdilution technique. Antimicrob. Agents Chemother. 16, 710-718, (1979)).
(§3) The culture medium consists of RPMI 1640 with the addition of 25 mM HEPES, 25 mM NaHCO3, 100 μg/ml neomycin and […] (A^+). Human-A^+ erythrocytes are used as the Plasmodium falciparum host cells. The parasites are maintained at 37° C. in an atmosphere of 3% O2, 4% CO2, 9:3% N2 and 95% relative humidity.
(§4) In order to determine the activity, the preparations are dissolved in dimethyl sulphoxide, pre-diluted in the culture medium to a suitable starting concentration and subsequently titrated-out on to microtitre plates in the 2nd stage over 6-7 steps. After the addition of the parasite culture (0.7% parasitemia in 2.5% erythrocyte suspension) the test plates are incubated under the conditions given above for 48 h-72 h. The parasite growth in the different preparation concentrations is determined using [G--^3 H]-hypoxanthin incorporation compared to untreated control cultures on the same test plates. The 50% growth inhibition (IC50) is calculated according to logit regression analysis from the resulting dosage-activity curve.
(§5) The preparations are tested on at least one chloroquine-resistant and one chloroquine-sensitive Plasmodium falciparum strain. Additional sensitive and resistant strains are included for futher characterization.

Assay [3] deals with chloroquine-sensitive strains of the human-pathogenenic Plasmodium falciparum. Briefly: Growth inhibition of chloroquine-sensitive Plasmodium falciparum strains in vitro. Format: cell-based. On the procedure: as §1, §2, §3, §4, §5
Setting [4] is: po, single peroral dose 10 mg/kg, read-out: GI % at 10 mg/kg po.
[5] abbreviates: sc, single subcutaneous dose 10 mg/kg, read-out: GI % at 10 mg/kg sc.
[6] abbreviates: read-out: IC50 growth inhibition, strain 7G8, chloroquine-resistant.
Where [7] appears, read: read-out: IC50 growth inhibition, strain Indo, chloroquine-resistant.
Setting [8] is: read-out: IC50 growth inhibition, strain ItG2F6, chloroquine-resistant.
[9] abbreviates: read-out: IC50 growth inhibition, strain K1, chloroquine-resistant.
The mark [10] stands for this setting: read-out: IC50 growth inhibition, strain RFCF3, chloroquine-resistant.
The mark [11] stands for this setting: read-out: IC50 growth inhibition, strain W2, chloroquine-resistant.
Setting [12] is: read-out: IC50 growth inhibition, strain W2 Mef, chloroquine-resistant.
[13] abbreviates: HB3, strain HB3, chloroquine-sensitive, read-out: IC50 growth inhibition.
Setting [14] is: NF54, strain NF54, chloroquine-sensitive, read-out: IC50 growth inhibition.
The mark [15] stands for this setting: strain FCH5C2, chloroquine-sensitive, read-out: IC50 growth inhibition.
The mark [16] stands for this setting: strain RFMEF3, chloroquine-sensitive, read-out: IC50 growth inhibition.
The mark [17] stands for this setting: strain Ro73, chloroquine-sensitive, read-out: IC50 growth inhibition.

Converted amounts (≈) assume the structure as drawn. Like-named read-outs stand apart in the source and are kept apart here.

For orientation: ED50 means the midpoint of the dose-response relation. Usually IC50 stands for the concentration that gives 50% inhibition. With `Clc1ccc2c(N[C@H]3CC[C@@H](Nc4ccnc5cc(Cl)ccc45)CC3)ccnc2c1` [Example 5, cis-N,N'-Bis-(7-chloroquinolin-4-yl)-cyclohexane-1,4-diamine], the inhibition in vivo at 10 mg/kg in assay [1] (setting [4]) is 98%; in assay [1] (setting [5]) it was 99.9%. Moreover, in assay [1] (po, single peroral administration, read-out: ED50 po), the ED50 was 1.5 mg/kg. Moreover, the IC50 in assay [2] (setting [6]) was determined as 0.009 µg/mL (≈ 0.0206 µM); in assay [2] (setting [7]) it was 0.0044 µg/mL (≈ 0.0101 µM); in assay [2] (setting [8]), 0.0068 µg/mL (≈ 0.0155 µM); in assay [2] (setting [9]), 0.0077 µg/mL (≈ 0.0176 µM); in assay [2] (setting [10]) it was 0.0051 µg/mL (≈ 0.0117 µM); in assay [2] (setting [11]) it was 0.0048 µg/mL (≈ 0.011 µM). Moreover, the IC50 amounted to 0.0065 µg/mL (≈ 0.0149 µM) in assay [2] (setting [12]); 0.0032 µg/mL (≈ 0.00732 µM) in assay [3] (setting [13]); 0.0026 µg/mL (≈ 0.00594 µM) in assay [3] (setting [14]); 0.0039 µg/mL (≈ 0.00892 µM) in assay [3] (setting [15]); 0.0034 µg/mL (≈ 0.00777 µM) in assay [3] (setting [16]); 0.0023 µg/mL (≈ 0.00526 µM) in assay [3] (setting [17]). Further, the Resistance index in assay [2] is 2.1.

Consider `Clc1ccc2c(NCC3CCCC(CNc4ccnc5cc(Cl)ccc45)C3)ccnc2c1` (stereo not shown) [Example 11, (7-Chloroquinolin-4-yl)-[3-(7-chloroquinolin-4-yl-aminomethyl)-cyclohexylmethyl]-amine], for which the inhibition in vivo at 10 mg/kg was 28% in assay [1] (setting [4]) and 99.6% in assay [1] (setting [5]). Further, the IC50 turned out to be 0.0205 µg/mL (≈ 0.044 µM) in assay [2] (setting [6]); 0.0144 µg/mL (≈ 0.0309 µM) in assay [2] (setting [7]); 0.0116 µg/mL (≈ 0.0249 µM) in assay [2] (setting [8]); 0.0178 µg/mL (≈ 0.0382 µM) in assay [2] (setting [9]); 0.0141 µg/mL (≈ 0.0303 µM) in assay [2] (setting [10]); 0.0099 µg/mL (≈ 0.0213 µM) in assay [2] (setting [11]). In addition, the IC50 in assay [2] (setting [12]) came out at 0.0159 µg/mL (≈ 0.0342 µM); in assay [3] (setting [13]), 0.0127 µg/mL (≈ 0.0273 µM); in assay [3] (setting [14]), 0.0172 µg/mL (≈ 0.037 µM); in assay [3] (setting [15]), 0.0145 µg/mL (≈ 0.0312 µM); in assay [3] (setting [16]), 0.0168 µg/mL (≈ 0.0361 µM); in assay [3] (setting [17]), 0.0049 µg/mL (≈ 0.0105 µM). Besides, the Resistance index in assay [2] is 1.1.

Regarding `Clc1ccc2c(NC/C=C/CNc3ccnc4cc(Cl)ccc34)ccnc2c1` [Example 13, N,N'-Bis-(7-chloroquinolin-4-yl)-2-butene-1,4-diamine], the IC50 came to 0.0181 µg/mL (≈ 0.0442 µM) in assay [2] (setting [9]) and 0.0308 µg/mL (≈ 0.0752 µM) in assay [3] (setting [14]).

As to `Clc1ccc2c(Nc3cccc(Nc4ccnc5cc(Cl)ccc45)c3)ccnc2c1` [Example 9, N,N'-Bis-(7-Chloroquinolin-4-yl)-phenylene-1,3-diamine], the inhibition in vivo at 10 mg/kg in assay [1] (setting [4]) worked out at 86%; in assay [1] (setting [5]), 83%. For the same compound, the IC50 in assay [2] (setting [6]) is 0.0171 µg/mL (≈ 0.0396 µM); in assay [2] (setting [7]), 0.0077 µg/mL (≈ 0.0179 µM); in assay [2] (setting [8]) it was 0.0129 µg/mL (≈ 0.0299 µM); in assay [2] (setting [9]), 0.0171 µg/mL (≈ 0.0396 µM); in assay [2] (setting [10]) it was 0.0125 µg/mL (≈ 0.029 µM); in assay [2] (setting [11]), 0.0121 µg/mL (≈ 0.0281 µM). Further, the IC50 in assay [2] (setting [12]) was 0.0121 µg/mL (≈ 0.0281 µM); in assay [3] (setting [13]), 0.0095 µg/mL (≈ 0.022 µM); in assay [3] (setting [14]) it was 0.0237 µg/mL (≈ 0.0549 µM); in assay [3] (setting [15]), 0.0156 µg/mL (≈ 0.0362 µM); in assay [3] (setting [16]), 0.0108 µg/mL (≈ 0.025 µM); in assay [3] (setting [17]) it was 0.0104 µg/mL (≈ 0.0241 µM). Besides, the Resistance index in assay [2] is 0.9.

`Clc1ccc2c(NC3CCC(CC4CCC(Nc5ccnc6cc(Cl)ccc56)CC4)CC3)ccnc2c1` (stereo not shown) [Example 12, N,N'-Bis-(7-chloroquinolin-4-yl)-dicyclohexylmethane-4,4'-diamine]: the 50% inhibitory concentration (IC50) in assay [2] (setting [6]) worked out at 0.0171 µg/mL (≈ 0.032 µM); in assay [2] (setting [7]) it was 0.0137 µg/mL (≈ 0.0257 µM); in assay [2] (setting [8]), 0.0133 µg/mL (≈ 0.0249 µM); in assay [2] (setting [9]), 0.013 µg/mL (≈ 0.0244 µM); in assay [2] (setting [10]), 0.0072 µg/mL (≈ 0.0135 µM); in assay [2] (setting [11]) it was 0.025 µg/mL (≈ 0.0469 µM). Moreover, the IC50 in assay [2] (setting [12]) worked out at 0.0216 µg/mL (≈ 0.0405 µM); in assay [3] (setting [13]), 0.0263 µg/mL (≈ 0.0493 µM); in assay [3] (setting [14]), 0.0116 µg/mL (≈ 0.0217 µM); in assay [3] (read-out: IC50 growth inhibition, strain RFMEF3, chloroquine-sensitive), 0.0137 µg/mL (≈ 0.0257 µM); in assay [3] (setting [15]), 0.0194 µg/mL (≈ 0.0364 µM); in assay [3] (setting [17]), 0.0178 µg/mL (≈ 0.0334 µM). Further, the Resistance index in assay [2] worked out at 0.9.
